Measured values published in patent US20260176252A1, “IONIZABLE LIPIDS WITH BRANCHED HEAD GROUPS” (Beam Therapeutics Inc., priority 2023, published 2026).

Assays:
[1] = Dynamic light scattering (DLS) of LNP preparations: size (diameter) and polydispersity; assay type: physicochemical; conditions: Table D; LNP formulation ratio 47.5:40:2.5:10, ABE mRNA + PCSK9 sgRNA 1:1
Description: A ratio of aqueous to organic solvent of approximately 2:1 or 3:1 was maintained during mixing using differential flow rates. After mixing, LNP preparations were collected, diluted in phosphate buffer saline (PBS) or Tris-buffered saline (TBS) (approximately 1:1 v/v). Further buffer exchange was conducted using dialysis in PBS or TBS at 4° C. for 4 to 24 hours against a 20 kDa filter. After this initial dialysis, each individual LNP preparation may be characterized via dynamic light scattering (DLS) to measure the size (e.g., diameter) and polydispersity. LNP preparations falling within specific diameter and polydispersity ranges were pooled, and further dialyzed against PBS or TBS at 4° C. for 1 to 4 hours against a 100 kDa dialysis cassette. After the second dialysis, LNP preparations were sterile filtered using 0.22 μm filter and stored at 4° C. for further use.
(§1) LNP preparations are formed by microfluidic mixing of the lipid and NA solutions using a Precision Nanosystems NanoAssemblr Ignite Instrument, according to the manufacturer's protocol. A 3:1 ratio of aqueous to organic solvent is maintained during mixing using differential flow rates. After mixing, LNP preparations are collected, diluted in PBS (approximately 2:1 v/v), and further buffer exchange is conducted using dialysis in PBS at 4° C. for 8 to 24 hours against a 20 kDa filter. After this initial dialysis, each individual LNP preparation is characterized via dynamic light scattering (DLS) to measure size and polydispersity. pKa of a subpopulation of LNP preparations is measured via TNS assay. After dialysis, LNP preparations are sterile filtered using 0.22 micron sterile filter and stored at 4° C. for further use. In some embodiments, LNP preparations may be concentrated using 100 kDa Amicon filters per manufacturer's protocol.
DLS-LNP preparation hydrodynamic diameter and polydispersity index (PDI) is measured using high throughput dynamic light scattering (DLS) (DynaPro plate reader II, Wyatt). LNP preparations are diluted 1×PBS to an appropriate concentration and analyzed.

[2] = pKa of LNP preparations via TNS assay; assay type: physicochemical; conditions: Table D; LNP formulation ratio 47.5:40:2.5:10
Description: as §1

PCSK9 target site = assay: In vivo base editing with LNP-delivered ABE mRNA and sgRNA targeting PCSK9; conditions: Balb/c mice, IV tail vein, 0.03 mg/kg total RNA, 4 days after dosing
Description: Lipid nanoparticle components are dissolved in 100% ethanol at specified lipid component molar ratios. mRNA encoding an adenine base editor and a chemically-modified sgRNA is dissolved at a mass ratio of 1:1 in 10 mM citrate, 100 mM NaCl, pH 4.0, resulting in a concentration of NA cargo of approximately 0.22 mg/mL. LNP preparations are formulated with molar ratios of either 50% Ionizable Lipid:38.5% Cholesterol:1.5% PEG2000-DMG: 10% DSPC or 47.5% Ionizable Lipid:40% Cholesterol:2.5% PEG2000-DMG: 10% DSPC both at a total lipid to NA molar ratio of 6.
as §1
Male Balb/C mice aged approximately 8-12 weeks are used in the experiments described herein. Each mouse is temporarily restrained, and LNP preparations are administered IV via tail vein injection. Age-matched mice are also used to administer vehicle (1×PBS) via tail vein injection as a control. […]
For base editing, mRNA encoding an adenine base editor (ABE) and a guide RNA (sgRNA) targeting PCSK9 at 1:1 (mass ratio) are coencapsulated in LNP preparations as described herein. […] Base editing is determined by performing targeted deep sequencing analysis at the PCSK9 target site using extracted genomic DNA.

[3] = Encapsulation efficiency of LNP preparations (unlysed and lysed LNPs); assay type: physicochemical; conditions: Table D; LNP formulation ratio 47.5:40:2.5:10, ABE mRNA + PCSK9 sgRNA 1:1
Description: Concentration of NA is determined by Qubit microRNA kit (for siRNA) or HS RNA kit (for mRNA) per manufacturer's instructions. Encapsulation efficiency is determined by measuring unlysed and lysed LNPs.

Diameter (nm) [1] [nm] | pKa [2] | EE (%) [3] [%] | Compound | Liver Editing A->G (%) (PCSK9 target site)
73.3 | 6.72 | 96.1 | C=CC(C)(CCC=C(C)CCC=C(C)C)OC(=O)CCCCCC(=O)OCC(COC(=O)CCCCCC(=O)OC(C)(C=C)CCC=C(C)CCC=C(C)C)COC(=O)CCC(CCCCCC)OC(=O)NCCN1CCCC1 (stereo not drawn) [Example 13, 1-{2-[({7-oxo-7-[(3,7,11-trimethyldodeca-1,6,10-trien-3-yl)oxy]heptanoyl}oxy)methyl]-3-{[4-({[2-(pyrrolidin-1-yl)ethyl]carbamoyl}oxy)decanoyl]oxy}propyl}7-(3,7,11-trimethyldodeca-1,6,10-trien-3-yl) heptanedioate] | 1.2
77.15 | 6.78 | 97.7 | CCCCCCC(CCC(=O)OCC(COC(=O)CCCCCC(=O)OCC=C(C)CCC=C(C)CCC=C(C)C)COC(=O)CCCCCC(=O)OCC=C(C)CCC=C(C)CCC=C(C)C)OC(=O)NCCN1CCCC1 (stereo not drawn) [Example 14, 1-{2-[({7-oxo-7-[(3,7,11-trimethyldodeca-2,6,10-trien-1-yl)oxy]heptanoyl}oxy)methyl]-3-{[4-({[2-(pyrrolidin-1-yl)ethyl]carbamoyl}oxy)decanoyl]oxy}propyl}7-(3,7,11-trimethyldodeca-2,6,10-trien-1-yl) heptanedioate] | 23.6
74.1 | 6.32 | 98.5 | CCCCCCC(CCC(=O)OCC(COC(=O)CCCCCC(=O)OCC=C(C)CCCC(C)CCCC(C)CCCC(C)C)COC(=O)CCCCCC(=O)OCC=C(C)CCCC(C)CCCC(C)CCCC(C)C)OC(=O)NCCN1CCCC1 (stereo not drawn) [Example 15, 1-{2-[({7-oxo-7-[(3,7,11,15-tetramethylhexadec-2-en-1-yl)oxy]heptanoyl}oxy)methyl]-3-{[4-({[2-(pyrrolidin-1-yl)ethyl]carbamoyl}oxy)decanoyl]oxy}propyl}7-(3,7,11,15-tetramethylhexadec-2-en-1-yl) heptanedioate] | 15.7
